Test results taken from the CheMixHub viscosity set.

Assay: xn = mol fraction of the nth substance listed

CCCN(CCC)CCC + c1ccccc1
viscosity [mPa·s], 101 kPa
Conditions	x1 = 0.01039	x1 = 0.02061	x1 = 0.03067	x1 = 0.04025	x1 = 0.04975	x1 = 0.05958	x1 = 0.06933	x1 = 0.07883	x1 = 0.08893
303.15 K	0.5599	0.5574	0.5552	0.5532	0.5515	0.5487	0.5467	0.5453	0.5429
313.15 K	0.4902	0.4877	0.4859	0.4836	0.4818	0.4793	0.4772	0.476	0.4738

CCCCCCCCCCBr + ClC(Cl)(Cl)Cl
101 kPa
Conditions	viscosity [mPa·s]
297.75 K, x1 = 0.0484	0.9823
297.75 K, x1 = 0.0969	1.057
297.75 K, x1 = 0.1945	1.208
297.75 K, x1 = 0.3918	1.52
297.75 K, x1 = 0.5923	1.858
297.75 K, x1 = 0.7944	2.106
303.95 K, x1 = 0.0456	0.8918
303.95 K, x1 = 0.0914	0.9574
303.95 K, x1 = 0.1852	1.105
303.95 K, x1 = 0.2667	1.2
303.95 K, x1 = 0.5802	1.618
303.95 K, x1 = 0.7825	1.864
313.55 K, x1 = 0.0457	0.7792
313.55 K, x1 = 0.092	0.8323
313.55 K, x1 = 0.1856	0.948
313.55 K, x1 = 0.378	1.171
313.55 K, x1 = 0.5776	1.377
313.55 K, x1 = 0.7832	1.562

O=S(=O)([O-])[O-].[Mg+2] + O
viscosity [mPa·s]
Conditions	308.15 K	313.15 K	323.15 K
101.3 kPa, x1 = 0.00112	0.74	0.6745	0.5642
101.3 kPa, x1 = 0.002247	0.7982	0.7215	0.605
101.3 kPa, x1 = 0.004484	0.8401	0.76	0.6392
101.3 kPa, x1 = 0.008927	0.942	0.8575	0.733
101.3 kPa, x1 = 0.0177	1.094	0.955	0.8368
101.33 kPa, x1 = 0.000905	0.7405	0.675	0.5648
101.33 kPa, x1 = 0.002718	0.7988	0.722	0.6054
101.33 kPa, x1 = 0.00453	0.8405	0.7605	–
101.33 kPa, x1 = 0.006344	0.889	0.8025	0.6695
101.33 kPa, x1 = 0.008159	0.942	0.858	0.7335

CCN(CC)c1ccccc1 + CCCCCCCCO
viscosity [mPa·s], 100 kPa
Conditions	x1 = 0.1141	x1 = 0.2548	x1 = 0.3537	x1 = 0.4726	x1 = 0.5725	x1 = 0.6945	x1 = 0.7795	x1 = 0.8584	x1 = 0.9317
303.15 K	5.389	4.382	3.806	3.235	2.842	2.446	2.212	2.016	1.847
308.15 K	4.42	3.49	2.987	2.519	2.221	1.947	1.8	1.684	1.587
313.15 K	3.684	2.854	2.428	2.056	1.837	1.653	1.56	1.487	1.421
318.15 K	3.135	2.356	1.976	1.667	1.503	–	1.339	1.305	1.271

Clc1ccc(Cl)c(Cl)c1 + Nc1ccccc1Cl
viscosity [mPa·s], 101 kPa
Conditions	x2 = 0.1164	x2 = 0.2287	x2 = 0.337	x2 = 0.4415	x2 = 0.5425	x2 = 0.6402	x2 = 0.7346	x2 = 0.8259	x2 = 0.9143
303.15 K	1.936	2.118	2.307	2.504	2.708	2.919	3.137	3.361	3.59
308.15 K	1.773	1.935	2.103	2.277	2.456	2.639	2.827	3.018	3.214
313.15 K	1.614	1.761	1.912	2.067	2.226	2.388	2.553	2.72	2.889
318.15 K	1.46	1.595	1.734	1.875	2.019	2.165	2.313	2.462	2.612

Cc1ccc(C(C)C)c(O)c1 + CCCCCCCCCCCCCCCC(=O)O
100 kPa, x2 = 0.2
Conditions	viscosity [mPa·s]
313.15 K	9.21
318.15 K	7.54
323.15 K	6.29

CCCCCCCCCCCC(=O)OCC + CCCO
viscosity [mPa·s], 101.33 kPa
Conditions	x2 = 0.1001	x2 = 0.2003	x2 = 0.3	x2 = 0.3999	x2 = 0.5	x2 = 0.5999	x2 = 0.7	x2 = 0.8	x2 = 0.9
293.15 K	3.214	3.059	2.924	2.798	2.671	2.547	2.426	2.307	2.215
298.15 K	2.875	2.742	2.62	2.504	2.398	2.286	2.175	2.078	1.997
303.15 K	2.579	2.464	2.353	2.252	2.15	2.052	1.956	1.869	1.786
308.15 K	2.32	2.218	2.12	2.025	1.936	1.845	1.756	1.674	1.6
313.15 K	2.108	2.013	1.919	1.833	1.749	1.669	1.59	1.513	1.44
318.15 K	1.935	1.849	1.767	1.688	1.609	1.531	1.454	1.381	1.315
323.15 K	1.748	1.67	1.595	1.522	1.451	1.382	1.315	1.251	1.188
